The values below come from US20040092890A1, “Catheter lock solution including a photo-oxidant” (priority 2003, published 2004).

One data set concerns Enterobacter Faecalis. Nature of the data set: Effect of methylene blue on concentration of a gram positive organism without light exposure (FIG. 3). Type of data set: cell-based. The protocol:
FIG. 3 is a representation of the effect of methylene blue (12 mg/100 ml) on concentration of a gram positive organism, Enterobacter Faecalis, without light exposure.
(§1) In a series of tests, with a gram negative and a gram positive organism, methylene blue inactivated all bacteria within 1 day, while heparin and a 4% concentration of citrate caused no effect on gram positive organisms (FIGS. 2, 3). Methylene blue also advantageously colors the lock solution blue, which provides a useful tool to medical personnel in preventing confusion between the lock solution and any other solution that might be present in a syringe or the catheter.
FIG. 3 is a representation of the effect of methylene blue (12 mg/100 ml) on concentration of a gram positive organism, Enterobacter Faecalis, without light exposure. […] It is expected that illumination will augment bacterial killing by methylene blue even more.

Data set [1] is described as follows: Relative density of citrate solutions (FIG. 6). Type of data set: physicochemical.
Text: It is of course understood that the densities of citrate solutions increase as the concentrations of citrate therein increase.
The densities of various formulations of various catheter lock solutions are directly related to the citrate concentration, as reflected in the linear graph set forth in FIG. 6.
The next data set deals with gram negative bacteria. The note with it: large numbers of bacteria; cited from earlier work.
The subject of another data set is Escherichia Coli. In words: Effect of methylene blue on concentration of a gram negative organism without light exposure (FIG. 2). Type of data set: cell-based. The method, then:
FIG. 2 is a graph depicting the effect of methylene blue (12 mg/100 ml) on concentration of a gram negative organism, Escherichia Coli, without light exposure.
as §1
FIG. 2 is a representation of the effect of methylene blue (12 mg/100 ml) on concentration of a gram negative organism, Escherichia Coli, without light exposure. […] It is expected that illumination will augment bacterial killing by methylene blue even more.

A further data set deals with gram-negative organisms. In words: Killing of gram-negative organisms by methylene blue 0.01%. The note with it: methylene blue 0.01% (10 mg/100 mL).
[2] abbreviates: methylene blue 12 mg/100 ml, without light exposure.

Take `O=C(O)CC(O)(CC(=O)O)C(=O)O` [citrate]: the “Effect on gram positive organisms” value in the data set on Enterobacter Faecalis (4% concentration of citrate) is listed as “no effect”. The figures for the Relative density in data set [1] (23% citrate) and in data set [1] (citrate concentration of 0.24M) were 1.120 and “about 1.045”, respectively. Also, the “Time until all gram negative bacteria are killed” value in the data set on gram negative bacteria is 1 to 7 days.
For the molecule `CN(C)c1ccc2nc3ccc(=[N+](C)C)cc-3sc2c1` [methylene blue], the “Time to inactivate all bacteria” value in the data set with Escherichia Coli (gram negative organism) and with Enterobacter Faecalis (gram positive organism) was ≤ 1 days throughout. Further, the “Killing of E. Coli” value with Escherichia Coli (setting [2]) is reported as “All E. Coli are killed within one day”. Also, the “Killing of Enterobacter Faecalis” value in the data set on Enterobacter Faecalis (setting [2]) is “All Enterobacter are killed within one day”. For the same molecule, the “Killing of gram-negative organisms” value with gram-negative organisms is recorded as “kill gram-negative organisms within one day”.
In the case of heparin, in the data set with Enterobacter Faecalis (heparin), the “Effect on gram positive organisms” value was “no effect”.
